Experimental data published in PubChem BioAssay AID179 (DTP/NCI, 2004).
Calls of active or inactive are those of the source.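 The calls were made as follows: active = compounds giving half or more protection of infected cells from virus-caused growth loss, again on retest; inactive = the rest.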 Where a SMILES comes first, the peptide text is derived from it.

Test system: CEM cells HIV-1 protection, formazan growth assay
Assay: NCI AIDS Antiviral Assay
Conditions: for IC50: measured here: growth of uninfected CEM cells
Outline: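 Human CEM cells, uninfected and HIV-1-infected, exposed to five drug concentrations; growth measured by soluble formazan assay and scored as percent protection from infection, with protecting compounds retested.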

SMILES	EC50	IC50	outcome
CC1=C(C(=O)Nc2cccc3c2C(=O)NC3=O)CC(C(=O)Nc2cccc3c2C(=O)NC3=O)=C(C)N1	> 200 µM	> 200 µM	
C[C@@]1(O)C2CC3CC1(c1ccccc1)CC(/C3=N/O)/C2=N\O (stereo partly drawn)	> 200 µM	> 200 µM	
O=C(O)Cc1[nH]c(=O)[nH]c(=O)c1CCl	> 100 µM	> 100 µM	
c1ccc(C2=C(c3ccccc3)Sc3nnc(CCCCCCCCc4nnc5n4NC(c4ccccc4)=C(c4ccccc4)S5)n3N2)cc1	> 200 µM	89.1 µM	
Cc1nnc2c3nccnc3c(Cl)nn12	> 200 µM	2.34 µM	
c1ccc(-c2nnc(CCCCCCCCc3nnc(-c4ccccc4)o3)o2)cc1	> 200 µM	158 µM	
COC(=O)c1c(C(=O)OC)c(C(=O)OC)c2c([nH]c3ccccc32)c1C(=O)OC			inactive
CC(=O)c1ccc(NC(=O)CSc2nc(C)nc3c2sc(=S)n3-c2ccccc2)cc1	> 200 µM	> 200 µM	
Cc1[nH]c(=O)nc(NCCNCCO)c1C(=O)Nc1cccc2cc3ccccc3cc12	> 200 µM	> 200 µM	
Cn1c(=O)cc(CC(=O)C(=O)O)c2ccccc21	> 200 µM	148 µM	
CC(C)(C)C(=O)C(C(=O)c1ccccc1)C(=O)C(C)(C)C	> 200 µM	> 200 µM	
CC(C)[Si](OCC1CC(C#N)OC(C)(C)O1)(C(C)C)C(C)C (stereo not drawn)	> 200 µM	107 µM	
O=C(O)CN(c1ccc(F)cc1)S(=O)(=O)c1ccccc1			inactive
COc1ccc2c(c1)C1(C=N2)CCN(C(C)=O)CC1	> 138 µM	> 138 µM	
COC(=O)c1c/c(=N\NC(=O)CC(=O)Nc2ccccc2Cl)c2ccccc2o1	166 µM	302 µM	
C[CH2][Sn]([CH2]C)([O]C(=O)c1cccc(OC)c1)[O][Sn]([CH2]C)([CH2]C)[O]C(=O)c1cccc(OC)c1	> 38.9 µM	16.6 µM	
CC(=C\c1ccccc1)/C=C1\C(=O)NC(=S)N1C=C1C(=O)NC(=O)NC1=O	> 200 µM	> 200 µM	
CSc1nnc(CCC(=O)Nc2c(C)cccc2C)o1	> 309 µM	> 309 µM	

SMILES	EC50	IC50	outcome
CC(C)(C)OC(=O)NCC(=O)NCC(=O)NCC(=O)NCC(=O)O (HELM PEPTIDE1{[CC(C)(C)OC(=O)[*:2]].G.G.G.G}$$$$V2.0)	> 724 µM	> 724 µM	
CCOC1C(Br)Cn2c(=O)c3cc4ccccc4cc3c(=O)n2C1C (stereo not drawn)	> 17.8 µM	> 17.8 µM	
Cc1cc2oc(=N)c(C#N)c(C)c2cc1C	> 200 µM	43.7 µM	
[B-]1n2ccc[n+]2[B-]n2ccc[n+]21	> 200 µM	> 200 µM	
N#CC1(O)Cc2ccccc2C1	> 200 µM	> 200 µM	
CC1C(O)=C(O)c2ccccc2N1O (stereo not drawn)	> 490 µM	87.1 µM	
Cc1c(Cl)ccc2c1NC(=O)C2(O)CC(=O)c1ccc2ccccc2c1 (stereo not drawn)	> 19.5 µM	> 19.5 µM	
CC1CC2NC(C)CC3NC(C)CC(N1)N32 (stereo not drawn)	> 794 µM	> 794 µM	
CN(C)CC1CCCCC1O (stereo not drawn)	> 1290 µM	> 1290 µM	
CC(=N)OC1CC2CCC1(C)C2(C)C (stereo not drawn)	> 200 µM	> 200 µM	
CCCCc1ccc(C(N)=O)nc1	> 200 µM	> 200 µM	
COC(=O)c1ccccc1/C=C1\Cc2c(ccc3c2CCC3)C1=O	> 151 µM	> 151 µM	
Cc1nc(N)nc(N)c1N1CCN(c2ccc([N+](=O)[O-])cc2)CC1	> 100 µM	27.5 µM	
O=C1NC23CC=CCC12CCC3 (stereo not drawn)	> 1230 µM	> 1230 µM	
CCc1cccc(CC)c1N1C(=O)C2=C(SCCCS2)C1=O	> 44.7 µM	24 µM	
C#CCOCn1ccc(=O)[nH]c1=O	> 200 µM	> 200 µM	
CC(=O)OC1C(O)COC(O[C@H]2CC[C@]34C[C@]35CC[C@]3(C)C([C@@]6(C)CC[C@@H](C(C)(C)O)O6)[C@@H](O)C[C@@]3(C)C5C[C@H](OC3OCC(O)C(O)C3O)[C@H]4C2(C)C)C1OC1OCC(O)C(O)C1O (stereo partly drawn)	> 200 µM	> 200 µM	
